Source: publication PMC10848157, “Assessing NH300094, a novel dopamine and serotonin receptor modulator with cognitive enhancement property for treating schizophrenia” (Frontiers in Pharmacology, 2024)

Molecular target: T1, 5-HT2C receptor (Homo sapiens, UniProt P28335)
T1 sequence (P28335 33-458): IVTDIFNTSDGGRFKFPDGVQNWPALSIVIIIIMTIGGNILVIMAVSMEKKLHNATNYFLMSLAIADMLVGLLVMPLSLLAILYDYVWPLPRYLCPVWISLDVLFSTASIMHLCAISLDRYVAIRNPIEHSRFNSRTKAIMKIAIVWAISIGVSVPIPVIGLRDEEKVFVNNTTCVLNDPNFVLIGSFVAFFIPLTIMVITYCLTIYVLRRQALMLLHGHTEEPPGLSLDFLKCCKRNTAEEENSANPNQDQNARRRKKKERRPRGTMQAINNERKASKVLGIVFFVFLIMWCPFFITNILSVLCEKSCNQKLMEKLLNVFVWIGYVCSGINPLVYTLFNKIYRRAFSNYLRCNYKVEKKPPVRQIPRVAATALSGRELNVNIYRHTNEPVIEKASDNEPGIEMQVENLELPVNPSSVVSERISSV
Assay: 5-HT2C receptor functional assay (calcium flow, FLIPR)
Assay type: cell-based
Settings: HEK293/5-HT2C cells, read-out: 5HT2cR, IC50

With `O=C1CCc2cc(OCCCN3CCC(c4noc5cc(F)ccc45)CC3)cc3c2N1CC3` [NH300094, 8-(3-(4-(6-fluorobenzo [d]isoxazol-3-yl)piperidin-1-yl)propoxy)-1,2,5,6-tetrahydro-4H-pyrrolo [3,2,1-ij] quinolin-4-one] the IC50 was 3.02 µM.
